The record followed here is patent US20120053200A1, “BACE 2 INHIBITORS” (priority 2010, published 2012).

Molecules are shown by their SMILES. pIC50: −log10 of the molar value.

Usually pIC50 stands for the negative decadic logarithm of the IC50, by convention in mol/L. Lower therefore signals a large IC50.

This assay has as its target T1, BACE2 (Rattus norvegicus, UniProt Q6IE75).
T1 construct: endogenous cellular BACE2 in the Ins1e rat cell line; endogenous in cells; host or cells: INS-TMEM27 (INS1e-derived rat beta-cell line with doxycycline-inducible full-length hTMEM27)
T1 sequence (Q6IE75 63-514): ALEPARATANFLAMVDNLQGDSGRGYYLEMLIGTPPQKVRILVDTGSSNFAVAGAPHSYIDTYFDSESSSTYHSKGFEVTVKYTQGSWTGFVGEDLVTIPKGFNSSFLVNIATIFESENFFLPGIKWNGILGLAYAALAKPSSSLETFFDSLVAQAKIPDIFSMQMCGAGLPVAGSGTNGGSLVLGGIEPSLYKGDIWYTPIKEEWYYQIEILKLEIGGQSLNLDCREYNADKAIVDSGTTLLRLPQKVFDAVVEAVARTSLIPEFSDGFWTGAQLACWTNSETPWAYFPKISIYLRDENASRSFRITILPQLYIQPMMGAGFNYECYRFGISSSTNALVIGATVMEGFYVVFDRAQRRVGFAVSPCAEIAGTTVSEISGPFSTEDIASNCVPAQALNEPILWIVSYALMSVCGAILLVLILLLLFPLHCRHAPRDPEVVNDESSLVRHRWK
Kind of assay: Assay for BACE inhibition by measuring cellular TMEM27 cleavage (INS-TMEM27 cells, ELISA of shed TMEM27). The conditions noted are these: inhibition of human TMEM27 cleavage by endogenous cellular BACE2 in INS1e-derived INS-TMEM27 rat cell line; ELISA of shed TMEM27 in supernatant. The format is cell-based. An excerpt: Assay for […] Inhibition by Measuring Cellular TMEM27 Cleavage
This assay uses the principle of inhibition of human TMEM27 cleavage by endogenous cellular BACE2 in the Ins1e rat cell line and shedding from the cell surface into the culture medium, followed by detection in an ELISA assay. Inhibition of BACE2 prevents the cleavage and shedding in a dose-dependent manner.
The stable cell line “INS-TMEM27” represents an INS1e-derived cell line with inducible expression (using the TetOn system) of full-length hTMEM27 in a doxycycline-dependent manner. The cells were cultured throughout the experiment in RPMI1640+Glutamax (Invitrogen) Penicillin/Streptomycin, 10% Fetal bovine serum, 100 mM pyruvate, […] beta-mercatptoethanol, 100 micrograms/ml G418 and 100 microgram/ml hygromycin and were grown in adherent culture at 37° C. in a standard CO2 cell culture incubator.
INS-TMEM27 cells were seeded in 96-well plates. After 2 days in culture, BACE2 inhibitor was added in a range of concentrations as required by the assay and after a further two hours, doxycycline was added to a final concentration of 500 ng/ml. The cells were incubated for a further 46 hours and the supernatant harvested for detection of shed TMEM27.
An ELISA assay (using a pair of mouse anti-human-TMEM27 antibodies, raised against the extracellular domain of TMEM27) was used for detection of TMEM27 in the culture medium. An IC50 for BACE2 inhibition was calculated using the ELISA readout for each inhibitor concentration with standard curve-fitting software.
The inhibitory activity, given as an IC50 value, of the compounds of Examples 1 to 32 and 34 to 74 were as follows.
(In an ELISA, binding on a coated surface is turned into a signal by an enzyme label.)
In turn, `COc1cccc(CNC[C@@H](O)[C@H](Cc2ccccc2)NC(=O)c2cccc(C(=O)N3CCCC3c3ccccc3)c2)c1` (stereo partly drawn) [Example 22, N-[(1S,2R)-1-Benzyl-2-hydroxy-3-(3-methoxy-benzylamino)-propyl]-3-(2-phenyl-pyrrolidine-1-carbonyl)-benzamide] gave a pIC50 of 7.51. Then `CCn1cc(CNC[C@@H](O)[C@H](Cc2ccccc2)NC(=O)c2cccc(C(=O)N3CCCC3c3ccccc3)c2)cn1` (stereo partly drawn) [Example 23, N-{(1S,2R)-1-Benzyl-3-[(1-ethyl-1H-pyrazol-4-ylmethyl)-amino]-2-hydroxy-propyl}-3-(2-phenyl-pyrrolidine-1-carbonyl)-benzamide], with 7.24; and `O=C(N[C@@H](Cc1ccccc1)[C@H](O)CNCc1cccc(OC(F)(F)F)c1)c1cccc(C(=O)N2CCCC2c2ccccc2)c1` (stereo partly drawn) [Example 24, N-[(1S,2R)-1-Benzyl-2-hydroxy-3-(3-trifluoromethoxy-benzylamino)-propyl]-3-(2-phenyl-pyrrolidine-1-carbonyl)-benzamide], with 7.17; and `O=C(N[C@@H](Cc1ccccc1)[C@H](O)CNCc1cccc(OC(F)(F)F)c1)c1cccc(C(=O)N2CCCC2c2cccnc2)c1` (stereo partly drawn) [Example 25, N-[(1S,2R)-1-Benzyl-2-hydroxy-3-(3-trifluoromethoxy-benzylamino)-propyl]-3-(2-pyridin-3-yl-pyrrolidine-1-carbonyl)-benzamide], with 7.15.

Regarding `Cc1cc(C2CCCN2C(=O)c2cccc(C(=O)N[C@@H](Cc3ccccc3)[C@H](O)CNCc3cccc(OC(F)(F)F)c3)c2)on1` (stereo partly drawn) [Example 26, N-[(1S,2R)-1-Benzyl-2-hydroxy-3-(3-trifluoromethoxy-benzylamino)-propyl]-3-[2-(3-methyl-isoxazol-5-yl)-pyrrolidine-1-carbonyl]-benzamide], the pIC50 was 6.55. Against the preceding molecule, the pIC50 is 0.60 log units lower. `COc1cccc(CNC[C@@H](O)[C@H](Cc2ccccc2)NC(=O)c2cccc(C(=O)N3CCCC3c3ccc(C)s3)c2)c1` (stereo partly drawn) [Example 27, N-[(1S,2R)-1-Benzyl-2-hydroxy-3-(3-methoxy-benzylamino)-propyl]-3-[2-(5-methyl-thiophen-2-yl)-pyrrolidine-1-carbonyl]-benzamide] showed a pIC50 of 6.50. As for `COc1cccc(CNC[C@@H](O)[C@H](Cc2ccccc2)NC(=O)c2cccc(C(=O)N(C)Cc3ccccn3)c2)c1` [Example 28, N-[(1S,2R)-1-Benzyl-2-hydroxy-3-(3-methoxy-benzylamino)-propyl]-N′-methyl-N′-pyridin-2-ylmethyl-isophthalamide], the pIC50 was 6.29. The same measure for `CN(Cc1ccccn1)C(=O)c1cccc(C(=O)N[C@@H](Cc2ccccc2)[C@H](O)CNCc2cccc(OC(F)(F)F)c2)c1` [Example 29, N-[(1S,2R)-1-Benzyl-2-hydroxy-3-(3-trifluoromethoxy-benzylamino)-propyl]-N′-methyl-N′-pyridin-2-ylmethyl-isophthalamide]: 6.95; for `COc1cccc(CNC[C@@H](O)[C@H](Cc2ccccc2)NC(=O)c2cccc(C(=O)N3CCCC3c3cccs3)c2)c1` (stereo partly drawn) [Example 30, N-[(1S,2R)-1-Benzyl-2-hydroxy-3-(3-methoxy-benzylamino)-propyl]-3-(2-thiophen-2-yl-pyrrolidine-1-carbonyl)-benzamide]: 7.80.

On to `CCn1cc(CNC[C@@H](O)[C@H](Cc2ccccc2)NC(=O)c2cccc(C(=O)N3CCCC3c3cccs3)c2)cn1` (stereo partly drawn) [Example 31, N-{(1S,2R)-1-Benzyl-3-[(1-ethyl-1H-pyrazol-4-ylmethyl)-amino]-2-hydroxy-propyl}-3-(2-thiophen-2-yl-pyrrolidine-1-carbonyl)-benzamide], for which the pIC50 was 6.62. This pIC50 is 1.18 log units lower than that of the molecule before. Then `O=C(N[C@@H](Cc1ccccc1)[C@H](O)CNCc1cccc(OC(F)(F)F)c1)c1cccc(C(=O)N2CCCC2c2cccs2)c1` (stereo partly drawn) [Example 32, N-[(1S,2R)-1-Benzyl-2-hydroxy-3-(3-trifluoromethoxy-benzylamino)-propyl]-3-(2-thiophen-2-yl-pyrrolidine-1-carbonyl)-benzamide], with 6.86. Then `CCn1cc(CNC[C@@H](O)[C@H](Cc2ccccc2)NC(=O)c2cc(C)cc(C(=O)N3CCC[C@@H]3c3nc(C)cs3)c2)cn1` [Example 34, N-{(1S,2R)-1-Benzyl-3-[(1-ethyl-1H-pyrazol-4-ylmethyl)-amino]-2-hydroxy-propyl}-3-methyl-5-[(R)-2-(4-methyl-thiazol-2-yl)-pyrrolidine-1-carbonyl]-benzamide], with 6.84. The same measure for `CCn1cc(CNC[C@@H](O)[C@H](Cc2ccccc2)NC(=O)c2cc(C(=O)N3CCCC3c3ccccc3)cc(N(C)S(C)(=O)=O)c2)cn1` (stereo partly drawn) [Example 35, N-{(1S,2R)-1-Benzyl-3-[(1-ethyl-1H-pyrazol-4-ylmethyl)-amino]-2-hydroxy-propyl}-3-(methanesulfonyl-methyl-amino)-5-(2-phenyl-pyrrolidine-1-carbonyl)-benzamide]: 9.70. `CCn1cc(CNC[C@@H](O)[C@H](Cc2ccccc2)NC(=O)c2cc(C)cc(C(=O)N3CCCC3c3ccccc3)c2)cn1` (stereo partly drawn) [Example 36, N-{(1S,2R)-1-Benzyl-3-[(1-ethyl-1H-pyrazol-4-ylmethyl)-amino]-2-hydroxy-propyl}-3-methyl-5-(2-phenyl-pyrrolidine-1-carbonyl)-benzamide] had a pIC50 of 9.00.

`CCn1cc(CNC[C@@H](O)[C@H](Cc2ccccc2)NC(=O)c2cc(C)cc(C(=O)N(C)Cc3ccccn3)c2)cn1` [Example 37, N-{(1S,2R)-1-Benzyl-3-[(1-ethyl-1H-pyrazol-4-ylmethyl)-amino]-2-hydroxy-propyl}-5,N′-dimethyl-N′-pyridin-2-ylmethyl-isophthalamide] showed a pIC50 of 9.00.

The molecule `CCn1cc(CNC[C@@H](O)[C@H](Cc2ccccc2)NC(=O)c2cc(C(=O)N3CCCC3c3cccs3)cc(N(C)S(C)(=O)=O)c2)cn1` (stereo partly drawn) [Example 38, N-{(1S,2R)-1-Benzyl-3-[(1-ethyl-1H-pyrazol-4-ylmethyl)-amino]-2-hydroxy-propyl}-3-(methanesulfonyl-methyl-amino)-5-(2-thiophen-2-yl-pyrrolidine-1-carbonyl)-benzamide] had a pIC50 of 9.52. With `CCn1cc(CNC[C@@H](O)[C@H](Cc2ccccc2)NC(=O)c2cc(C)cc(C(=O)N3CCCC3c3cccs3)c2)cn1` (stereo partly drawn) [Example 39, N-{(1S,2R)-1-Benzyl-3-[(1-ethyl-1H-pyrazol-4-ylmethyl)-amino]-2-hydroxy-propyl}-3-methyl-5-(2-thiophen-2-yl-pyrrolidine-1-carbonyl)-benzamide], the pIC50 is 9.00. The molecule `CCn1cc(CNC[C@@H](O)[C@H](Cc2ccccc2)NC(=O)c2cc(C)cc(C(=O)N(C)Cc3nc(C)cs3)c2)cn1` [Example 40, N-{(1S,2R)-1-Benzyl-3-[(1-ethyl-1H-pyrazol-4-ylmethyl)-amino]-2-hydroxy-propyl}-5,N′-dimethyl-N′-(4-methyl-thiazol-2-ylmethyl)-isophthalamide] showed a pIC50 of 6.98. Molecule `Cc1csc([C@H]2CCCN2C(=O)c2cc(C(=O)N[C@@H](Cc3ccccc3)[C@H](O)CNCc3cccc(OC(F)(F)F)c3)cc(N(C)S(C)(=O)=O)c2)n1` [Example 41, N-[(1S,2R)-1-Benzyl-2-hydroxy-3-(3-trifluoromethoxy-benzylamino)-propyl]-3-(methanesulfonyl-methyl-amino)-5-[(R)-2-(4-methyl-thiazol-2-yl)-pyrrolidine-1-carbonyl]-benzamide] gave a pIC50 of 10.00. This pIC50 is 3.02 log units higher than that of the molecule before. The same measure for `CN(c1cc(C(=O)N[C@@H](Cc2ccccc2)[C@H](O)CNCc2cccc(OC(F)(F)F)c2)cc(C(=O)N2CCCC2c2ccccc2)c1)S(C)(=O)=O` (stereo partly drawn) [Example 42, N-[(1S,2R)-1-Benzyl-2-hydroxy-3-(3-trifluoromethoxy-benzylamino)-propyl]-3-(methanesulfonyl-methyl-amino)-5-(2-phenyl-pyrrolidine-1-carbonyl)-benzamide]: 7.21; for `Cc1cc(C(=O)N[C@@H](Cc2ccccc2)[C@H](O)CNCc2cccc(OC(F)(F)F)c2)cc(C(=O)N2CCCC2c2ccccc2)c1` (stereo partly drawn) [Example 43, N-[(1S,2R)-1-Benzyl-2-hydroxy-3-(3-trifluoromethoxy-benzylamino)-propyl]-3-methyl-5-(2-phenyl-pyrrolidine-1-carbonyl)-benzamide]: 8.52.
